Data set [1] can be described thus: Metabolite identification and profiling in rat hepatocytes. The format is in vitro ADME. To be noted: SH-337, rat hepatocytes, 60 min incubation. How it is done:
SH-337 was incubated with rat or human hepatocytes at a concentration of 1.0 × 10^6 cells/mL for 60 min or 120 min (rat 60 min, human 120 min) at 37°C in a CO2 incubator. The samples were precipitated with acetonitrile at 1 : 2 and further centrifuged; the supernatants were dried with a stream of N2 gas. The residues were reconstituted with 300 μL of 10% acetonitrile/H2O (0.1% TFA) and analyzed by LC-MS/MS. The assays were pursued under the conditions provided in Supplementary Tables S5–S8.

A short description of data set [2]: Metabolite identification and profiling in rat liver microsomes. The class given is in vitro ADME. Conditions: SH-337 10 µM, 30 min incubation. How it is done:
(§1) Liver microsomes (1 mg protein/mL) were suspended in phosphate buffer (50 mM, pH 7.4) containing MgCl2 (6 mM). […] The reactions were initiated at 37°C by the addition of 1 mM NADPH and terminated at 30 min or 60 min (30 min for rat; 60 min for human). The samples were precipitated with acetonitrile at 1 : 2 and further centrifuged; the supernatants were dried with a stream of N2 gas. The residues were reconstituted with 300 μL of 10% acetonitrile/H2O (0.1% TFA) and analyzed by LC-MS/MS. The assays were pursued under the conditions provided in Supplementary Tables S4, S6, S7, and S8.
(Liver microsomes are a subcellular fraction often used to study metabolism.)

Another data set can be described thus: Rat microsomal stability. The format is in vitro ADME. How it is done: (§2) The in vitro metabolic stabilities of selected compounds were performed using human and rat liver microsomes in triplicate as described previously.
Data set [3] deals with T1, rabbit gastric H+, K+-ATPase (Oryctolagus cuniculus, UniProt P27112).
T1 construct: using rabbit gastric H^+, K^+-ATPase; from tissue; host or cells: rabbit stomach (gastric preparation; the method of preparation is not described)
T1 sequence (P27112 whole entry): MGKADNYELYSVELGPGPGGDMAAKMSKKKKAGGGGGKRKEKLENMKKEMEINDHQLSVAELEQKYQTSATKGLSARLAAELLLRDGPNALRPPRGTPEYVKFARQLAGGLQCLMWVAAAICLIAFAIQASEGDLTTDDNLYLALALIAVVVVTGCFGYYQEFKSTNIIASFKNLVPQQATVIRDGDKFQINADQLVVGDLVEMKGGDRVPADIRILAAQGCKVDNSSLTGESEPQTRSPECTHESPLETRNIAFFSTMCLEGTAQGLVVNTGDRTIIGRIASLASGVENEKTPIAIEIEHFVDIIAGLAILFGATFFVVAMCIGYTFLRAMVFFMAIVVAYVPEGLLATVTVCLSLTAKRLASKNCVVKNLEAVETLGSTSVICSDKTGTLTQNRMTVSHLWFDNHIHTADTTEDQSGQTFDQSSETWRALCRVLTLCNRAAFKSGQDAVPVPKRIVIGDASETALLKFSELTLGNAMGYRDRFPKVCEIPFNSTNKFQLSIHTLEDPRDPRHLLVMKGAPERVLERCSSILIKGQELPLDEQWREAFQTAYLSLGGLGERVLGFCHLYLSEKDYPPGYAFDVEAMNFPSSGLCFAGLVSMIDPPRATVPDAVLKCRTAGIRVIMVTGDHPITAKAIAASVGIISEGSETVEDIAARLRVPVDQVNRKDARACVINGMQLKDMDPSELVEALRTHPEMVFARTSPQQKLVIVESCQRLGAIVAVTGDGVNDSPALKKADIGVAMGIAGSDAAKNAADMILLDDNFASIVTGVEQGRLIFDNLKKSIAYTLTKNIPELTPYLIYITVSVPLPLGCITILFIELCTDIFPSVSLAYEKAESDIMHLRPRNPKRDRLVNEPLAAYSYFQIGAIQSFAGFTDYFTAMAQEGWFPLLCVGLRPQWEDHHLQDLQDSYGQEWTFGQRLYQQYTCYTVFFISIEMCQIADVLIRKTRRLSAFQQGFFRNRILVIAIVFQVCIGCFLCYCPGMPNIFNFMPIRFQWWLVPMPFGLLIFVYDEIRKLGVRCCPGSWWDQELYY
T1 sequence (P18597 whole entry partner): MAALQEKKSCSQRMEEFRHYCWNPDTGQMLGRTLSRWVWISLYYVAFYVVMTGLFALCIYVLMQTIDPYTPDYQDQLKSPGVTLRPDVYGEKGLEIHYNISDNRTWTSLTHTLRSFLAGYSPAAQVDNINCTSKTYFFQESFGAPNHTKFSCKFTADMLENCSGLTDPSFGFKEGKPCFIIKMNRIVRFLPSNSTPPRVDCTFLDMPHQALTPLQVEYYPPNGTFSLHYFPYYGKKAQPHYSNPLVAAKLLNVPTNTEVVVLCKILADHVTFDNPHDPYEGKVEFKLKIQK
Briefly: In vitro enzymatic activity assay (inorganic phosphate from ATP hydrolysis). The format is biochemical. How it is done:
The in vitro enzymatic activity was calculated by measuring the inorganic phosphate produced by the hydrolysis of ATP using rabbit gastric H^+, K^+-ATPase. 0.25 μg enzyme was preincubated at 37°C for 30 min in Tris-HCl buffer (2.0 mL, 50 mM, pH 6.5) containing 5 mM MgCl2, 10 μM valinomycin, 0 or 20 mM KCl, and different concentrations of SH-337 and vonoprazan. The reaction was initiated by adding 5 μL of 5 mM ATP 2Na, and the preparation was incubated for 30 min at 37°C and halted by the addition of 100 μL of malachite green reagent (0.12% malachite green, 7.5% ammonium molybdate, and 11% tween 20 were mixed in a volume ratio of 100 : 25 : 2). H^+, K^+-ATPase activity was calculated after subtracting the enzyme activity in the absence of KCl.

Another data set has as its target Na+, K+-ATPase. Briefly: In vitro Na+, K+-ATPase activity. The class given is biochemical.
The nature of data set [4]: Two-week repeat-dose toxicity test. The format is in vivo, SD rats. How it is done: (§3) For acute toxicity test: 12 SPF SD rats were randomly divided into three groups and received a single dose of SH-337 (1000 mg/kg, i.g.), and the animal tolerance was recorded within 2 hours. For two-week repeat-dose toxicity test: 20 SPF SD rats were randomly divided into two groups and received SH-337 (100, 200 mg/kg, i.g.) once daily for 14 days. SH-337 was dissolved in 0.5% CMC-Na. The body weight of the rats was recorded every 7 days. During the experiment, clinical parameters included apparent changes in the mental state, skin or fur, behavior, genitals, mucous membranes, respiration, stool consistency, glandular organ secretions, mortality, or other toxic results that were recorded. In addition, animal bodyweight and food intake were assessed once weekly over the study period. At the end of the experiment, the rats were sacrificed, and the serum hematological parameters and serum biochemistry parameters were recorded.

The nature of data set [5]: Metabolite identification and profiling in human liver microsomes. The format is in vitro ADME. To be noted: SH-337 10 µM, 60 min incubation. As to the method:
as §1

A short description of data set [6]: Acute (single-dose) toxicity test. The class given is in vivo. Conditions: SD rats, single dose of 1000 mg/kg, i.g. How it is done: as §3
Data set [7] is described as follows: Human microsomal stability. The format is in vitro ADME. How it is done:
as §2

Data set [8] is described as follows: log D7.4 measurement (1-octanol/PBS pH 7.4). The format is physicochemical. As to the method:
Procedure for pKa and log D7.4 measurements. The pKa was determined using pH-metric Method from DMSO Stock Solution. Procedure for Log D determinations: 15 µL of stock solutions of test compounds and control compound was placed in order into their proper 96-well rack. 500 µL of PBS saturated 1-octanol was added into each vial of the cap-less Log D plate followed by the addition of 500 µL of 1-octanol saturated PBS (pH 7.4). One stir stick was added to each vial and a molded PTFE/Silicone plug was used to seal each vial. Then the Log D plate was transferred to the Eppendorf Thermomixer Comfort plate shaker and shaken at 25°C at 1,100 RPM for 1 hour. After completion of 1 hour, plugs were removed and the stir sticks were removed using a big magnet. The samples were then centrifuged at 25°C at 20,000 g for 20 minutes to separate the phases, and pipette and syringe were used to remove the upper (1-octanol) and lower (buffer) phases to the empty tubes, respectively. Aliquots of 5 µL were taken from upper phases followed by addition of 495 µL of a mixture of H2O and acetonitrile (1:1 in v/v). Vortex for 1 minute, and then aliquots of 50 µL were taken from the diluent followed by addition of 450 µL of a mixture of H2O and acetonitrile (1:1 in v/v). And aliquots of 50 µL were taken from lower phases followed by addition of 450 µL of a mixture of H2O and acetonitrile (1:1 in v/v). 200 μL of diluent was transferred to a new 96-well plate for LC-MS/MS analysis. The dilution factor was changed according to the Log D value and the LC-MS signal response. The concentrations of test compound and control compound in 1-octanol/buffer solution were evaluated by LC-MS/MS. The Log D values of the test compounds and control compound were calculated as follows: […]

On to `CNCc1cc(-c2ccc(OCC3CC3)cc2F)n(S(=O)(=O)c2cccnc2)c1.Cl.Cl` [SH-337, 1-(5-(4-(cyclopropylmethoxy)-2-fluorophenyl)-1-(pyridin-3-ylsulfonyl)-1H-pyrrol-3-yl)-N-methylmethanamine dihydrochloride], for which the “Relative peak area, RHeps” value in [1] was determined as 28.2%. The “Relative peak area, RLMs” value in data set [2] was determined as 45.7%. Further, the “fold reduction of t1/2 vs. vonoprazan” value in “Rat microsomal stability” (rat microsomes) came to 17.6 fold; in [7] (human microsomes), 4.2 fold. The half-life in the data set “Rat microsomal stability” (rat, rat liver microsomes, read-out: Metabolic stability (t1/2) rat) was found to be 3.1 min; in data set [7] (human, human liver microsomes, read-out: Metabolic stability (t1/2) human), 81.4 min. In addition, the 50% inhibitory concentration (IC50) in [3] is 0.0338 µM; against Na+, K+-ATPase, 31.3 µM. In addition, the “fold greater enzyme inhibitory activity than vonoprazan” value in data set [3] (H+, K+-ATPase IC50, SH-337 vs. vonoprazan) came to 2.0 fold. This molecule also came in with a Fold selectivity in the data set on Na+, K+-ATPase (Na+, K+-ATPase over H+, K+-ATPase) of 925.6 fold. Besides, in data set [4] (100 mg/kg vs. 30 mg/kg), the “NOAEL, fold higher than vonoprazan” value turned out to be 3.3 fold. Moreover, in data set [4] (SD, rat, in vivo, po, no observed adverse effect level (NOAEL)), the no observed adverse effect level (NOAEL) at 14 days is not below 100 mg/kg. In [4] (rats, daily oral 100 mg/kg for 2 weeks), the repeated-dose toxicity findings result is recorded as “no evidence of SH-337 toxicity was observed”. The “Relative peak area, HLMs” value in [5] is recorded as 68.9%. Moreover, the animal death result in [6] is “no animal death was observed”. In addition, in data set [6], the “single-dose toxicity (tolerance)” value is on record as “well tolerated”. The molecule also showed a logD at 1 h in data set [8] (1-octanol/PBS, pH 7.4, pH 7.4) of 1.3. For the same molecule, the “log D7.4” value in [8] (pH 7.4) stood at 1.28.

Broadly, the IC50 is the concentration that gives 50% inhibition. A high value points to lower potency. Broadly, the NOAEL is the highest dose or exposure tested at which no adverse effect was seen. By logD is commonly meant the decadic logarithm of the distribution of all forms, ionised or not, between an organic phase and buffer at a given pH.

These data come from article PMC9343080, “Distribution- and Metabolism-Based Drug Discovery: A Potassium-Competitive Acid Blocker as a Proof of Concept” (Research, 2022).
